The values below come from publication PMC6278366, “Synthesis and Evaluation of Anticancer Activities of Novel C-28 Guanidine-Functionalized Triterpene Acid Derivatives” (Molecules, 2018).

One test has as its system Jurkat cells. Description: Cell cycle analysis (propidium iodide staining, flow cytometry). The class given is cell-based, human. The note with it: 48 h, at IC50 concentration (59 μM Dihydro BA; 4 μM 15, 15c, 18c; 8 μM 20c); for cells in G2/M phase: control 14.5%. On the procedure: Cell cycle was analyzed using the method of propidium iodide staining. Briefly, cells were plated in 24-well round bottom plates at density 10 × 10^5 cells per well, centrifuged at 450× g for 5 min, and fixed with ice-cold 70% ethanol for 24 h at 0 °C. Cells were then washed with PBS and incubated with 250 μL of Guava Cell Cycle Reagent (Millipore, Burlington, MA, USA) for 30 min at room temperature in the dark. Samples were analyzed on NovoCyte^TM 2000 FlowCytometry System (ACEA, San Diego, CA, USA).
Figure 3 Cell cycle analysis in Jurkat cells. […] The cells were trypsinized, harvested and washed three times with ice-PBS for PI-stained DNA content detected by flow cytometry. The experiments were performed three times, and the results of the representative experiments are shown. The first cytogram represents an untreated cell sample (A); after incubation with dihydrobetulinic acid for 48 h (B); after incubation with compound 15 for 24 h (C) and for 48 h (D); after incubation with compound 15c for 24 h (E) and for 48 h (F); after incubation with compound 18c for 24 h (G) and for 48 h (H); after incubation with compound 20c for 24 h (I) and for 48 h (J). […]

Test [1] concerns Jurkat (T-lymphoblastic leukemia) cells. As to the kind of experiment: cells. The test is classed as cell-based. The conditions noted are these: Homo sapiens, Jurkat, mean ± SE, at least three experiments in duplicate; viable cells; read-out: IC50 Jurkat. A digest of the protocol:
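Suspension lines in RPMI 1640 with 10% FBS at 37 °C, 5% CO2, treated with compounds at 1, 5, 10, 15, 30 and 60 μM. Live/dead status by 7-AAD staining (15 min, room temperature, dark) read on flow cytometer, 488 nm excitation, 675/30 nm emission.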

The next test has as its system normal human fibroblasts. As to the kind of experiment: Cytotoxicity assay (7-AAD viability, flow cytometry), normal fibroblasts. The note with it: Homo sapiens, Fibroblast, mean ± SE, at least three experiments in duplicate. The test is classed as cell-based.

Structures can show the parent of a compound that is named as a salt.

For `CC(=O)O[C@H]1CC[C@@]2(C)C(CC[C@]3(C)C2CCC2C4C(C(C)C)CC[C@]4(C(=O)OCC(CO)(CO)NC(=N)N)CC[C@]23C)C1(C)C` (stereo partly drawn) [Compound 15c, 3β-[2-Guanidine-3-hydroxy-2-(hydroxymethyl)propyl]-3-O-acetyl-lupane-28-oate hydrochloride], in the test on Jurkat cells, the “cells in G2/M phase” value was determined as 1.5%. Moreover, the IC50 in test [1] came out at 3.1 ± 0.41 µM; in the test with normal human fibroblasts, 27 ± 0.14 µM.

Regarding `CC(=O)O[C@H]1CC[C@@]2(C)C(CC[C@]3(C)C2CCC2C4C(C(C)C)CC[C@]4(C(=O)OCC(N)(CO)CO)CC[C@]23C)C1(C)C` (stereo partly drawn) [Compound 15, 3β-[2-Amino-3-hydroxy-2-(hydroxymethyl)propyl]-3-O-acetyl-lupane-28-oate], the “cells in G2/M phase” value with Jurkat cells came out at 7.0%. Moreover, the “cells in S phase” value with Jurkat cells (control 38.3%) was 72.7%. Also, the IC50 in test [1] is 3.3 ± 0.11 µM; in the test on normal human fibroblasts, 31 ± 0.29 µM.
